Target: T1, cystine/glutamate transporter (Homo sapiens, UniProt Q9UPY5)
T1 construct: endogenous in cells; host or cells: SKOV3 cells treated with 100 uM DEM (the paragraph also says 'DEM treated EL4 cells')
T1 sequence (Q9UPY5 1-501): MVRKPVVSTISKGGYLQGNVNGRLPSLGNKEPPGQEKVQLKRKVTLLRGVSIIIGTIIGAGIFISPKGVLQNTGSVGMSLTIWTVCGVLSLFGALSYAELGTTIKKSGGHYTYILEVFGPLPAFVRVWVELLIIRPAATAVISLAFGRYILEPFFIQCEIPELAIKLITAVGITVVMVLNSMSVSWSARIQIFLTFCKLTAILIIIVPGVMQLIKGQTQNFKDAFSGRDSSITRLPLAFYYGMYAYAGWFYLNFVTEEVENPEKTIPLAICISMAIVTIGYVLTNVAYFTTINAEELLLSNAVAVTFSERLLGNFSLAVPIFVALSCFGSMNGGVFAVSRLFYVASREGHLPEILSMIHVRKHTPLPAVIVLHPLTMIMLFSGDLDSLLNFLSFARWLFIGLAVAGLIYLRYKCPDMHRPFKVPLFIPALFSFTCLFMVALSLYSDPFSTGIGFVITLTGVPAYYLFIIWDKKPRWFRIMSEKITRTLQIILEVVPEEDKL
T1 sequence (P08195 2-529 partner): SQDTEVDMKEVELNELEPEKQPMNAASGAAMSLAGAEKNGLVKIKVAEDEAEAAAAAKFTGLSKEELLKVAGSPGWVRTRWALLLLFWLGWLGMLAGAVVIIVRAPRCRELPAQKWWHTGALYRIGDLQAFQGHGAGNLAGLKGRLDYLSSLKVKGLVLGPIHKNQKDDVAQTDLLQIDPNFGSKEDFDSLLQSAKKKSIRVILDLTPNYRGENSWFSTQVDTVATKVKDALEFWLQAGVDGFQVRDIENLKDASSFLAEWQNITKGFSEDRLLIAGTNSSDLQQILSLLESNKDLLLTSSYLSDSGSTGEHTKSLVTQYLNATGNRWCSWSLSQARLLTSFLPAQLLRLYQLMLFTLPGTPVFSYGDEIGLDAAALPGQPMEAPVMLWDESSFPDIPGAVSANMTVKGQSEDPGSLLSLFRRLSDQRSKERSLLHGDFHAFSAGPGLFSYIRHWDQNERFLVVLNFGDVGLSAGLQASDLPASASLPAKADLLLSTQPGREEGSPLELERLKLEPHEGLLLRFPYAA
Assay: Inhibition of 3H-L-Glu uptake in DEM treated cells
Assay type: cell-based
Conditions: SK-OV-3, 0.5 h; 1 mM agent; SKOV3 cells treated with 100 μM DEM overnight; 30 minutes uptake at room temperature; triplicate; lower = inhibition of transporter; read-out: % of control 3H-Glu uptake
Experimental: Also provided are measurements of inhibition response of ^3H-L-GLU (control) uptake in DEM treated EL4 cells. As such 96 well plate were seeded with 100,000 SKOV3 cells/well in complete growth media (McCoy's+10% Fetal Bovine Serum(FBS)) and incubated overnight at 37° C. The media was changed to 100 μM DEM and again incubated overnight at 37° C. Wash 1× with Hank's Balanced Salt Solution (HBSS) Room Temperature and assayed […] of each agent (Table 2) in triplicate by incubating for 30 minutes (uptake) at room temperature. It was then washed twice with HBSS and 200 μl MicroScint20 added for counting. The protocol used 200 μCi ^3H-Glu per well. The mix and agent and ^3H-Glu provided a final concentration of 200 μCi and 1 mM agent. […] As such lower response is indicative of inhibition of the transporter. As such numbers below approximately 30% is equivalent to 70% inhibition and are considered good candidates for pharmaceutical agents.

Compound: N[C@@H](CCCN(CCC(=O)O)C(=O)c1ccccc1)C(=O)O [Structure d]
- remaining activity at 1000 µM: 36%

Compound: N[C@@H](CCCN(CC(=O)O)C(=O)c1ccc(O)cc1)C(=O)O [Structure s]
- remaining activity at 1000 µM: 22.4%

Compound: N[C@@H](CCCN(CCC(=O)O)C(=O)c1ccc(O)cc1)C(=O)O [Structure t]
- remaining activity at 1000 µM: 45.4%

Compound: CCc1ccc(C(=O)N(CCC[C@H](N)C(=O)O)CC(=O)O)cc1 [Structure g]
- remaining activity at 1000 µM: 11.2%

Compound: Cc1ccc(S(=O)(=O)N(CCC[C@H](N)C(=O)O)CC(=O)O)cc1 [Structure q]
- remaining activity at 1000 µM: 13.4%

Compound: CC(=O)N(CCC[C@H](N)C(=O)O)CC(=O)O [Structure b]
- remaining activity at 1000 µM: 95.7%

Compound: CC(=O)N(CCC[C@H](N)C(=O)O)CCC(=O)O [Structure a]
- remaining activity at 1000 µM: 118%

Compound: CCCC(=O)N(CCCC[C@H](N)C(=O)O)CC(=O)O [Structure e]
- remaining activity at 1000 µM: 102%

Compound: N[C@@H](CCCN(CC(=O)O)C(=O)CCc1ccccc1)C(=O)O [Structure n]
- remaining activity at 1000 µM: 12.3%

Compound: N[C@@H](CCCN(CC(=O)O)C(=O)c1ccccc1)C(=O)O [Structure f]
- remaining activity at 1000 µM: 37.2%

Compound: CC(=O)N(CCCC[C@H](N)C(=O)O)CCC(=O)O [Structure c]
- remaining activity at 1000 µM: 102%

Compound: N[C@@H](CCCN(CCC(=O)O)C(=O)c1ccc(OCCF)cc1)C(=O)O [Structure y]
- remaining activity at 1000 µM: 10.6%

Compound: N[C@@H](CCCN(CC(=O)O)C(=O)Cc1ccccc1)C(=O)O [Structure j]
- remaining activity at 1000 µM: 43.3%

Compound: N[C@@H](CCCN(CC(=O)O)C(=O)c1ccc(OCCF)cc1)C(=O)O [Structure x]
- remaining activity at 1000 µM: 13.3%

Compound: CCOc1ccc(C(=O)N(CCC[C@H](N)C(=O)O)CC(=O)O)cc1 [Structure i]
- remaining activity at 1000 µM: 17.3%

Compound: N[C@@H](CCCN(CC(=O)O)C(=O)c1cccc2ccccc12)C(=O)O [Structure p]
- remaining activity at 1000 µM: 12.4%

Compound: CCOc1ccc(C(=O)N(CCC[C@H](N)C(=O)O)CCC(=O)O)cc1 [Structure k]
- remaining activity at 1000 µM: 11.6%

Compound: N[C@@H](CCCN(CC(=O)O)C(=O)OCc1ccccc1)C(=O)O [Structure r]
- remaining activity at 1000 µM: 16.4%

Compound: CCOc1cccc(C(=O)N(CCC[C@H](N)C(=O)O)CC(=O)O)c1 [Structure h]
- remaining activity at 1000 µM: 39.8%

Compound: N[C@@H](CCCN(CCC(=O)O)C(=O)c1ccc(OCc2ccccc2)cc1)C(=O)O [Structure u]
- remaining activity at 1000 µM: 12.7%

Compound: N[C@@H](CCCN(CCC(=O)O)C(=O)Cc1ccccc1)C(=O)O [Structure l]
- remaining activity at 1000 µM: 54.2%

Compound: CCC(C(=O)O)N(CCC[C@H](N)C(=O)O)C(=O)c1ccccc1 (stereo partly shown) [Structure w]
- remaining activity at 1000 µM: 26.1%

Source: US9468692B2, “Labeled molecular imaging agents and methods of use” (GENERAL ELECTRIC COMPANY, priority 2014, dated 2016)
